Experimental data taken from ChEMBL document CHEMBL1201862, “PubChem BioAssay data set” (2004).
The source made the active and inactive calls. For most assays here, no stated cut-off is given here; in the data, actives have a measured EC50 and inactives only a lower limit.

Assays:
[1] = system: H9c2; assay: cells; type: functional, cell-based; settings: Rattus norvegicus, H9c2, Myocardium;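 further: confirmatory concentration-response retest of ultra-high-throughput screening hits for modulation of myocardial damage; cell death induced by hydrogen peroxide oxidative stress; compound pretreatment for 60 min then peroxide exposure for 2 h; potency is for protecting the cells against peroxide damage rather than for killing them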
[2] = molecular target: T1, RNA-binding protein pos-1 (Caenorhabditis elegans, UniProt G5EF15); assay: disruptors of C. elegans POS-1 RNA interaction – biochemical, fluorescence polarization, dose response (AID 1964);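 further: purified POS-1 fused to maltose binding protein made in E. coli; potency of compounds blocking POS-1 binding to fluorescent RNA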
T1 sequence (G5EF15 whole entry): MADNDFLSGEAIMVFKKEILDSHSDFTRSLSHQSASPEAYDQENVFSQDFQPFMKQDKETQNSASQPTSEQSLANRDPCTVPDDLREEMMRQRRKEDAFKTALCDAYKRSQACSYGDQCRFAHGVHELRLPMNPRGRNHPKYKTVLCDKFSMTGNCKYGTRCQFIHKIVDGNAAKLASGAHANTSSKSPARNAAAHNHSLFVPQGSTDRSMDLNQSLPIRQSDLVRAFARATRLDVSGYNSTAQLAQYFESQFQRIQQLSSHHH

[3] = molecular target: T2, Zinc finger protein mex-5 (Caenorhabditis elegans, UniProt Q9XUB2); assay: potency of MEX-5 RNA-binding blockers – biochemical, C. elegans, fluorescence polarization, dose response (AID 1960)
T2 sequence (Q9XUB2 whole entry): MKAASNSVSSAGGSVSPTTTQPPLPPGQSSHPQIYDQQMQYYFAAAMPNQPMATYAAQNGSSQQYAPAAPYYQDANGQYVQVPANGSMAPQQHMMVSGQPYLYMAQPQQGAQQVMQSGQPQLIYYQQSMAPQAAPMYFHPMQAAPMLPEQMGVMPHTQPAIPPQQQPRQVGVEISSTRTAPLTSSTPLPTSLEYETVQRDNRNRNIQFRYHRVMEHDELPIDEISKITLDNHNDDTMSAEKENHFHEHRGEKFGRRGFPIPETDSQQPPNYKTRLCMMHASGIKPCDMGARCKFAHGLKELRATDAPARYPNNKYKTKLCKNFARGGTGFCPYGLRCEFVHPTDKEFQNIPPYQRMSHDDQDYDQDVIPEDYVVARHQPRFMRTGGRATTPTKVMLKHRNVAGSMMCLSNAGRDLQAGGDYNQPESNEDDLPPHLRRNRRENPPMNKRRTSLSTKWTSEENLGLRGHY

[4] = molecular target: T3, Heat shock factor protein 1 (Mus musculus, UniProt P38532); assay: decrease of HSF1-responsive luciferase luminescence – cell-based, NIH3T3, dose retest, confirmation (AID 2382); type: functional;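 further: NIH3T3 fibroblasts with HSF1-driven luciferase reporter stressed by proteasome inhibitor MG132; luminescence from HSF1-driven luciferase expression after 8 hours of MG132 stress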
T3 sequence (P38532 whole entry): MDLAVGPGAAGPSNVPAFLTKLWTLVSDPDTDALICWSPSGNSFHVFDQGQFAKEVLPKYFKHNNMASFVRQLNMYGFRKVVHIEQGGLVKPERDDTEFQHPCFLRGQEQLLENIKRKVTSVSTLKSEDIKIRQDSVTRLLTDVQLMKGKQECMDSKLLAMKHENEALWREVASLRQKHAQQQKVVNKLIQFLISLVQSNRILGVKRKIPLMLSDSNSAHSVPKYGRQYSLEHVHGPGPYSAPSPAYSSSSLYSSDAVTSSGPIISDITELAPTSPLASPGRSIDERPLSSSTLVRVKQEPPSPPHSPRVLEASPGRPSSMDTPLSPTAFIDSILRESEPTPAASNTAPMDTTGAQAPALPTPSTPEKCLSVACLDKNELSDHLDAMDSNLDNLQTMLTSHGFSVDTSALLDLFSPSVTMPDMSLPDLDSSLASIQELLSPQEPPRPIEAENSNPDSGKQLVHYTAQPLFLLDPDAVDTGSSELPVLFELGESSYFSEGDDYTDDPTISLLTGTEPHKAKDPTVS

[5] = molecular target: T4, Corticotropin-releasing factor receptor 2/Corticotropin-releasing factor-binding protein (Homo sapiens, UniProt P24387+Q13324); assay: Dose Response confirmation of uHTS hits for small molecule antagonists of the CRF-binding protein and CRF-R2 receptor complex.; type: functional; settings: read-out: IC50_Mean
T4 sequence (Q13324 whole entry): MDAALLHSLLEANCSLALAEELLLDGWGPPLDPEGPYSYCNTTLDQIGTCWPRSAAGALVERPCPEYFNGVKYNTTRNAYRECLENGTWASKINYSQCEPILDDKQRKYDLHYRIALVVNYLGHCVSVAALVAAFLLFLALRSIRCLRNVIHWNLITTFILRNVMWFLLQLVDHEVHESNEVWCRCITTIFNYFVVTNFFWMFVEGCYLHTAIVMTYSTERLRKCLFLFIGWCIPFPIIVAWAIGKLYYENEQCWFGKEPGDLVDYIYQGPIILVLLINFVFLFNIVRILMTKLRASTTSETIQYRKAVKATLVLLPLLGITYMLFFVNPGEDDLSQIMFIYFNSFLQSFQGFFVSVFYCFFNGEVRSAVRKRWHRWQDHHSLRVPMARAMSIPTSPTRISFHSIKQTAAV
T4 sequence (P24387 whole entry): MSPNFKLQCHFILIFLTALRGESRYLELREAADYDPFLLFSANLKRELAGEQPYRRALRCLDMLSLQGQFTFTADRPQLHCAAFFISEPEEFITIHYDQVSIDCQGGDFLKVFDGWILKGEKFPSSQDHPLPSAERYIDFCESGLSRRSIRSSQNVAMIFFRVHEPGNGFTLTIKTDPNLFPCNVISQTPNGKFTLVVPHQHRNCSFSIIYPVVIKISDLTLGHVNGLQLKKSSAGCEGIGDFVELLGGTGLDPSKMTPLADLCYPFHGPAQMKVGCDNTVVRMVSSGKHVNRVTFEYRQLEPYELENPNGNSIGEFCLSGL

[6] = molecular target: T4, Corticotropin-releasing factor receptor 2/Corticotropin-releasing factor-binding protein; assay: activators of CRF receptor 2 with binding protein – uHTS hits, confirmation (AID 602473); type: functional; settings: read-out: EC50_Mean
[7] = molecular target: T5, Calpain-2 catalytic subunit (Sus scrofa, UniProt P43367); assay: m-calpain protease blockers, concentration series – biochemical, fluorogenic peptide substrate, dose response (AID 1420); type: functional
T5 sequence (P43367 whole entry): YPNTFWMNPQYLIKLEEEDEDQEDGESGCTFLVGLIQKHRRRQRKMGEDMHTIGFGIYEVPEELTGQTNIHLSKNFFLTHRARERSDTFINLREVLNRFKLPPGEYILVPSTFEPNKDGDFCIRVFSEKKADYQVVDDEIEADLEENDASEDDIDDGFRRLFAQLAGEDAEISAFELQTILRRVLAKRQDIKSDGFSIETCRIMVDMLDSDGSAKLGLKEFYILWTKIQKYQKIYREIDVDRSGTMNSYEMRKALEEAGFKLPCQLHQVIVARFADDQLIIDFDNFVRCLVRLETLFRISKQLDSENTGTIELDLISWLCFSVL

[8] = NIH-3T3 fibroblast cytotoxicity, dose response, cytotoxicity control, cell-based, fluorescence, Alamar Blue, secondary assay (AID 2327); type: functional;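 further: NIH-3T3 mouse fibroblasts cultured with fluconazole at 8 µg/mL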
[9] = fluconazole-exposed Candida albicans growth modulators – fluorescence, retest, confirmation (AID 2467); type: functional, cell-based
[10] = Trypanosoma cruzi growth suppression in host cells – NIH3T3 host cells, beta-gal luminescence, confirmation (AID 2044); type: functional, cell-based;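 further: intracellular parasites grown in NIH/3T3 mouse fibroblasts as host cells; luminescent beta-galactosidase reporter signal from transgenic T. cruzi replicating inside host cells; inhibitors lower the luminescence signal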
[11] = NIH3T3 cell viability loss – ATP luminescence, mouse fibroblasts, counter-screen, dose response (AID 2010); type: functional, cell-based;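 further: cells exposed to compound for about 90 hours before reading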
[12] = molecular target: FAD-linked sulfhydryl oxidase ALR (Homo sapiens, UniProt P55789); assay: ALR-catalysed DTT oxidation blockers – biochemical, H2O2 detection, luminescence, cherry-pick, dose response (AID 493248)
FAD-linked sulfhydryl oxidase ALR, sequence (P55789 whole entry): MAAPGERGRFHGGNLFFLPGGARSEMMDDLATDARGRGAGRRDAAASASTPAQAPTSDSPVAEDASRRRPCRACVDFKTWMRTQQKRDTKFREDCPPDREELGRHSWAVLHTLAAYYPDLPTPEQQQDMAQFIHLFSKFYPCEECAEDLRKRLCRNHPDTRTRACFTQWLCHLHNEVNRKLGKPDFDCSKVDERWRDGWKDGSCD

[13] = molecular target: Cytochrome P450 2C9 (Homo sapiens, UniProt P11712)
Cytochrome P450 2C9, sequence (P11712 whole entry): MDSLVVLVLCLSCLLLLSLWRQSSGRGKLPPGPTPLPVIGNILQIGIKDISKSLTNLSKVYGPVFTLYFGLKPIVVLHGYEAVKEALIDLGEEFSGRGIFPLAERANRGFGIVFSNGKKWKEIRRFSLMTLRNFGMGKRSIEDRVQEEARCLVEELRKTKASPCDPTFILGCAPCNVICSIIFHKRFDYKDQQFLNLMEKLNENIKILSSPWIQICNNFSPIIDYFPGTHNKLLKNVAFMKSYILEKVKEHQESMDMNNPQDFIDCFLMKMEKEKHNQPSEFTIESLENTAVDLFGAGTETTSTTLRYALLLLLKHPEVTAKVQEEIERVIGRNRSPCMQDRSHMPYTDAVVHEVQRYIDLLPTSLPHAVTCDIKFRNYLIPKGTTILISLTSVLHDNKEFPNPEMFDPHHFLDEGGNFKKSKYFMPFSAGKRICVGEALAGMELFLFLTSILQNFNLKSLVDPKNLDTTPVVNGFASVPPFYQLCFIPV

## COc1ccc(CCNC(=O)C(=O)NCC2CCCN2S(=O)(=O)c2cc(C)ccc2C)cc1 (stereo not drawn)
[1]
  IC50: 34.1 µM (inactive)

## CCCCC1=CC2=CC(=O)C(C)(OC(=O)c3ccco3)C(=O)C2=CO1 (stereo not drawn)
[2]
  EC50: 20.5 µM (active)
[3]
  EC50: 16.2 µM (active)

## CC(C)CN(CC(C)C)C(S)=NC1CCCCC1
[4]
  EC50: 17 µM (active)
[5]
  IC50: > 47.1 µM (inactive)
[6]
  EC50: > 53 µM (inactive)

## Cc1ccc(-c2nn(C)c(=O)c3ccccc23)cc1S(=O)(=O)NCCN(C)C
[4]
  EC50: > 195 µM (not active)

## C=CCSc1nnc(N2C(=O)C(O)=C(C(=O)c3ccco3)C2c2ccccc2F)s1 (stereo not drawn)
[2]
  EC50: 48.3 µM (active)
[3]
  EC50: 54.8 µM (active)

## O=C(NC(=S)Nc1ccc2oc(=O)ccc2c1)c1cc2ccccc2o1
[4]
  EC50: > 195 µM (not active)

## CN(C)S(=O)(=O)c1ccc2c(c1)nc(CCC(=O)NCc1ccc(Cl)cc1)n2C
[7]
  IC50: 6.82 µM (not active)

## O=C1/C(=C/c2ccc(Br)cc2)Oc2cc(O)ccc21
[2]
  EC50: 7.71 µM (active)
[3]
  EC50: 6.67 µM (active)

## O=P(Nc1ccccc1)(Oc1ccccc1)Oc1ccccc1
[1]
  IC50: > 79 µM (inactive)

## CCCCOP(=O)(c1ccc(N(C)C)cc1)C(O)c1ccccc1F (stereo not drawn)
[8]
  EC50: > 150 µM (inactive)
[9]
  EC50: 2.56 µM (active)

## CCC(C)n1c(=N)c(C#N)cc2c(=O)n3cc(C)ccc3nc21 (stereo not drawn)
[2]
  EC50: > 300 µM (not active)
[3]
  EC50: 254 µM (inconclusive)

## Cc1ccccc1Nc1scc(-c2ccc(Cl)cc2)[n+]1-c1ccccc1C
[7]
  IC50: > 50 µM (not active)

## CCc1cc(C(=O)Nc2ccc(OC)nc2)sc1C
[2]
  EC50: 11.8 µM (active)
[3]
  EC50: 9.29 µM (active)

## CC1(C)C(=O)OC(c2c(F)c(F)c(F)c(F)c2F)C2(CCCCC2)C1=O (stereo not drawn)
[7]
  IC50: 4.17 µM (not active)

## CNC(=O)NC(=O)C(C)Oc1ccccc1F (stereo not drawn)
[7]
  IC50: < 0.4 µM (not active)

## O=C(CSc1nc(-c2ccco2)cc(C(F)(F)F)n1)NCCc1ccccc1
[8]
  EC50: 136 µM (inconclusive)
[9]
  EC50: > 38 µM (not active)

## O=C(Nc1ccc2c(c1)OCO2)c1cnn2c(C(F)(F)F)cc(-c3ccco3)nc12
[1]
  IC50: > 79 µM (inactive)

## Cc1cc2c3c(c1)C(C)CC(C)(C)N3C(=O)C2=O (stereo not drawn)
[2]
  EC50: > 300 µM (not active)
[3]
  EC50: > 300 µM (not active)

## CCCc1cc(=O)oc2c(CNc3ccc(OCC)cc3)c(O)ccc12
[1]
  IC50: > 79 µM (inactive)

## Cc1ccc(S(=O)(=O)NNC(=S)NC(=O)c2ccc([N+](=O)[O-])cc2)cc1
[2]
  EC50: 31.8 µM (active)
[3]
  EC50: 21.1 µM (active)

## Oc1nc2cc3c(cc2cc1CN(Cc1nnnn1CC1CCCO1)C1CCCCC1)OCO3 (stereo not drawn)
[1]
  IC50: 27.5 µM (active)

## CCN(CC)c1nc(-c2nnn[nH]2)nc(N(CC)CC)n1
[2]
  EC50: > 300 µM (not active)
[3]
  EC50: > 300 µM (not active)

## Oc1ccccc1CN(Cc1ccco1)CC(O)COCc1ccc(Cl)cc1 (stereo not drawn)
[7]
  IC50: 7.83 µM (not active)

## O=C(C1CCCO1)N1CCC2(CC1)OCCO2 (stereo not drawn)
[4]
  EC50: > 195 µM (not active)

## CSCc1cc(N2CCOCC2)nc(SCc2ccc(Cl)cc2Cl)n1
[7]
  IC50: 3.57 µM (not active)

## CC(C)CCN(C(=S)NC(=O)C1CCCCC1)c1c(N)n(Cc2ccccc2)c(=O)[nH]c1=O
[7]
  IC50: > 50 µM (not active)

## CCC1CCCCN1C(=O)c1cc2c(=O)n3cccc(C)c3nc2s1 (stereo not drawn)
[4]
  EC50: > 195 µM (not active)

## O=C(CSc1ccc2nnc(-c3ccncc3)n2n1)Nc1nccs1
[7]
  IC50: > 50 µM (not active)

## CC1CCN(Cc2cnc(Cl)s2)CC1
[7]
  IC50: 1.78 µM (not active)

## CN(C)C=O.COc1ccc(/C=C/c2nc3ccccc3c(=O)n2-c2cccc(C(=O)O)c2)cc1
[4]
  EC50: 22.7 µM (active)

## COc1cccc(CN(C)C(=O)C(Cc2ccccc2)NC(=O)c2ccccc2)c1OC (stereo not drawn)
[1]
  IC50: 6.93 µM (active)

## O=C(NC1CCCCC1)C(c1ccc2ncccc2c1)N(Cc1cccs1)C(=O)c1cccs1 (stereo not drawn)
[1]
  IC50: > 79 µM (inactive)

## CCCCN1C(=O)NC(=O)/C(=C\NNC(=O)c2ccncc2)C1=O
[2]
  EC50: > 300 µM (not active)
[3]
  EC50: > 300 µM (not active)

## CC(C)CC(=O)Nc1ccc(C(=O)COC(=O)Cc2nnc(O)c3ccccc23)cc1
[1]
  IC50: 18.4 µM (active)

## Cc1ccc(Nc2nc(CSc3nnc(-c4ccncc4)n3-c3ccccc3C)cs2)cc1
[8]
  EC50: > 160 µM (inactive)
[9]
  EC50: 4.95 µM (active)
[10]
  EC50: 2.47 µM (active)
[11]
  EC50: > 60 µM (inconclusive)

## C=CCN1C(=O)NC(=O)/C(=C(/C)NC2CCN(Cc3ccccc3)CC2)C1=O
[4]
  EC50: > 195 µM (not active)

## CC(C)CCNC(=O)NC(=O)CSc1nnc(-c2ccccc2Br)o1
[7]
  IC50: > 50 µM (not active)

## Cc1cc(NC(=O)COC(=O)[C@H](C)NC(=O)c2ccccc2)no1
[4]
  EC50: > 195 µM (not active)

## CCOC(=O)c1c(NC(=O)COC(=O)Cc2nnc(O)c3ccccc23)sc(C(=O)NC)c1C
[1]
  IC50: > 79 µM (inactive)

## COc1ccc(NS(=O)(=O)c2cc(NC(=O)Cc3nnc(O)c4ccccc34)ccc2OC)cc1
[1]
  IC50: > 79 µM (inactive)

## COc1cc(/C=N/n2nnnc2Nc2ccccc2)cc(OC)c1OC
[1]
  IC50: 12.4 µM (active)

## CC1=NN(c2ccccc2)C(=O)C1c1ccccc1 (stereo not drawn)
[12]
  AC50: 2.86 µM (active)

## O=C(O)CC1S/C(=N/N=C/c2ccc(Br)cc2)N(c2ccccc2)C1=O (stereo not drawn)
[7]
  IC50: 9.55 µM (not active)

## CN1CCN(/C=N/C2=C(C#N)C(c3ccccc3)C3=C(CC(C)(C)CC3=O)O2)CC1 (stereo not drawn)
[2]
  EC50: > 300 µM (not active)
[3]
  EC50: > 300 µM (not active)
[13]
  AC50: 14.1 µM (inconclusive)

## O=C(N/N=C/c1cccc(C(F)(F)F)c1)c1ccc(O)cc1
[4]
  EC50: > 195 µM (not active)
